Target: T1, mouse Tas2r108 (Mus musculus, UniProt Q9JKT3)
T1 construct: expressed in transfected cells; host or cells: HEK293T-Gα16gust44
T1 sequence (Q9JKT3 1-297): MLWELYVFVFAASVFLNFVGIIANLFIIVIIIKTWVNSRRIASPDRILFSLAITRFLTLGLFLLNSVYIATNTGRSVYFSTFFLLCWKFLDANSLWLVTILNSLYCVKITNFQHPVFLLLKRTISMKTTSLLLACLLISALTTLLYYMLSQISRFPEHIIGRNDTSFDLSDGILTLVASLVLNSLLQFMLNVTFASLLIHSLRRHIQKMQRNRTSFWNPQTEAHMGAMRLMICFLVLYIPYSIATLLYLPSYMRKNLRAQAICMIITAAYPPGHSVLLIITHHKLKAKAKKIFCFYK
Assay: Calcium imaging assay (FLIPR), HEK293T-Gα16gust44 cells transfected with mouse Tas2r108
Type: cell-based
Details: for Δ F/F: Tas2r108
How it was run: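 HEK293T-Gα16gust44 cells transiently transfected with the bitter-taste receptor, loaded next day with Fluo-4-AM plus 2.5 mM probenecid, and challenged with bile acids on FLIPR Tetra. Signals mock-subtracted, expressed as ΔF/F vs buffer.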

## C[C@H](CCC(=O)NCCS(=O)(=O)O)[C@H]1CC[C@H]2[C@@H]3[C@H](O)C[C@@H]4C[C@H](O)CC[C@]4(C)[C@H]3C[C@H](O)[C@]12C [Taurocholic Acid, taurocholic acid]
conc. 0,01 mM
  Δ F/F: 0.0164
conc. 0,1 mM
  Δ F/F: 0.02829
conc. 0,03 mM
  Δ F/F: 0.01249
conc. 0,3 mM
  Δ F/F: 0.06351
conc. 0,001 mM
  Δ F/F: 0.009911
conc. 1 mM
  Δ F/F: 0.1676
conc. 0,003 mM
  Δ F/F: 0.0148
Time 0 s
  RLU: 0 RLU
Time 2 s
  RLU: -20.2593 RLU
Time 4 s
  RLU: -40.462 RLU
Time 6 s
  RLU: -30.0161 RLU
Time 8 s
  RLU: -12.374 RLU
Time 12 s
  RLU: -13.3496 RLU
Time 14 s
  RLU: -6.544 RLU
Time 16 s
  RLU: -15.3343 RLU
Time 18 s
  RLU: -11.3649 RLU
Time 18.781 s
  RLU: 0.4416 RLU
Time 20.781 s
  RLU: -36.0442 RLU
Time 22.781 s
  RLU: -43.651 RLU
Time 24.781 s
  RLU: -41.1365 RLU
Time 26.781 s
  RLU: -18.6 RLU
Time 28.781 s
  RLU: 11.2728 RLU
Time 30.781 s
  RLU: 33.5132 RLU
Time 32.781 s
  RLU: 71 RLU
Time 34.781 s
  RLU: 95.3158 RLU
Time 36.781 s
  RLU: 97.2719 RLU
Time 38.781 s
  RLU: 144.173 RLU
Time 40.781 s
  RLU: 134.881 RLU
Time 42.781 s
  RLU: 146.815 RLU
Time 44.781 s
  RLU: 188.478 RLU
Time 46.781 s
  RLU: 187.465 RLU
Time 48.781 s
  RLU: 214.327 RLU
Time 50.781 s
  RLU: 211.162 RLU
Time 52.781 s
  RLU: 236.861 RLU
Time 54.781 s
  RLU: 237.067 RLU
Time 56.781 s
  RLU: 230.295 RLU
Time 58.781 s
  RLU: 253.142 RLU
Time 60.781 s
  RLU: 220.824 RLU
Time 62.781 s
  RLU: 245.001 RLU
Time 64.781 s
  RLU: 248.53 RLU
Time 66.781 s
  RLU: 284.462 RLU
Time 68.781 s
  RLU: 254.576 RLU
Time 70.781 s
  RLU: 279.831 RLU
Time 72.781 s
  RLU: 269.677 RLU
Time 74.781 s
  RLU: 263.013 RLU
Time 76.781 s
  RLU: 268.161 RLU
Time 78.781 s
  RLU: 271.517 RLU
Time 80.781 s
  RLU: 261.286 RLU
Time 82.781 s
  RLU: 284.591 RLU
Time 84.781 s
  RLU: 263.187 RLU
Time 86.781 s
  RLU: 264.054 RLU
Time 88.781 s
  RLU: 257.931 RLU
Time 90.781 s
  RLU: 266.719 RLU
Time 92.781 s
  RLU: 280.373 RLU
Time 94.781 s
  RLU: 260.776 RLU
Time 96.781 s
  RLU: 264.943 RLU
Time 98.781 s
  RLU: 262.119 RLU
Time 100.781 s
  RLU: 242.991 RLU
Time 102.781 s
  RLU: 248.884 RLU
Time 104.781 s
  RLU: 234.786 RLU
Time 106.781 s
  RLU: 246.521 RLU
Time 108.781 s
  RLU: 245.379 RLU
Time 110.781 s
  RLU: 221.773 RLU
Time 112.781 s
  RLU: 255.593 RLU
Time 114.781 s
  RLU: 236.786 RLU
Time 116.781 s
  RLU: 246.038 RLU
Time 118.781 s
  RLU: 236.543 RLU
Time 120.781 s
  RLU: 242.472 RLU
Time 122.781 s
  RLU: 225.877 RLU
Time 124.781 s
  RLU: 231.718 RLU
Time 126.781 s
  RLU: 218.383 RLU
Time 128.781 s
  RLU: 219.672 RLU
Time 130.781 s
  RLU: 215.513 RLU
Time 132.781 s
  RLU: 219.132 RLU
Time 134.781 s
  RLU: 219.383 RLU
Time 136.781 s
  RLU: 199.62 RLU
Time 137.562 s
  RLU: 222.887 RLU
Time 143.562 s
  RLU: 216.156 RLU
Time 149.562 s
  RLU: 209.286 RLU
Time 155.562 s
  RLU: 217.366 RLU
Time 161.562 s
  RLU: 220.781 RLU
Time 167.562 s
  RLU: 219.02 RLU
Time 173.562 s
  RLU: 233.427 RLU
Time 179.562 s
  RLU: 239.06 RLU
Time 185.562 s
  RLU: 225.962 RLU
Time 191.562 s
  RLU: 229.727 RLU
Time 197.562 s
  RLU: 239.899 RLU
Time 203.562 s
  RLU: 214.938 RLU
Time 209.562 s
  RLU: 251.411 RLU
Time 215.562 s
  RLU: 226.847 RLU
Time 221.562 s
  RLU: 216.644 RLU
Time 227.562 s
  RLU: 259.359 RLU
Time 233.562 s
  RLU: 219.243 RLU
Time 239.562 s
  RLU: 236.142 RLU
Time 245.562 s
  RLU: 237.626 RLU
Time 293.562 s
  RLU: 221.03 RLU
Time 299.562 s
  RLU: 234.317 RLU
Time 305.562 s
  RLU: 241.837 RLU
Time 311.562 s
  RLU: 254.495 RLU
Time 317.562 s
  RLU: 265.787 RLU
Time 323.562 s
  RLU: 251.038 RLU
Time 329.562 s
  RLU: 233.221 RLU
Time 335.562 s
  RLU: 247.117 RLU
Time 341.562 s
  RLU: 273.956 RLU
Time 347.562 s
  RLU: 268.956 RLU
Time 353.562 s
  RLU: 264.083 RLU
Time 359.562 s
  RLU: 275.281 RLU
P < 0.01 vs empty vector
  Activation threshold concentration Tas2r108: 100 µM

Reference: publication PMC10247784, “Physiological activation of human and mouse bitter taste receptors by bile acids” (Communications Biology, 2023)
